Data: patent US12297197B2, “Pyrazolopyridine compound as RET inhibitor and application thereof” (GUANGZHOU BAIYUNSHAN PHARMACEUTICAL HOLDINGS CO., LTD. …, priority 2019, dated 2025)

Assays:
RET (V804M) kinase = RET (V804M) kinase (Homo sapiens, UniProt P07949, V804M); assay: In-vitro enzyme activity test, RET (V804M) kinase; type: biochemical; conditions: ATP 30 μM; 10 concentrations 3 μM to 0.152 nM
Experimental: (§1) The enzyme activity was detected by a Z′-LYTE™ kinase test, and inhibitory effects of the compounds onRET and RET (V804M) kinases were evaluated with an ICs value of each compound as an index.
(§2) The compounds used for RET and RET (V804M) kinase tests were diluted 3-fold, in 10 concentration gradients ranging from 3 μM to 0.152 nM; and the content of DMSO in detection reaction was 1%.
(§3) Basic reaction buffer, 20 mM 4-(2-hydroxyethyl)piperazine-1-ethanesulfonic acid (Hepes) buffer (pH 7.5), 10 mM MgCl2. 1 mM 1,2-bis[2-[bis(carboxymethyl)amino]ethoxy]ethane (EGTA), 0.02% polyoxyethylene lauryl ether (Brij35), 0.02 mg/mL bovine serum albumin, 0.1 mM of Na3VO4, 2 mM dithiothreitol (DTT) and 1% DMSO.
(§4) The compounds to be tested were dissolved in a 100% DMSO system to be diluted to 10 mM for further use. The solution was diluted by using Integra Viaflo Assist.
(§5) Test conditions: concentrations of RET kinase, peptide substrate CHKtide and adenosine triphosphate (ATP) were […], 1000 μM and 20 μM, respectively, and concentrations of RET (V804M) kinase, substrate peptide and ATP were […], 1000 μM and 30 μM, respectively.
(§6) Reaction process: compound solutions of different concentrations were added to a kinase/peptide solution prepared according to the test conditions, the obtained solution was incubated at room temperature for 20 minutes, and then 33P-ATP of corresponding concentrations were added, and the obtained solution was incubated at room temperature for 120 minutes. The radioactivity was detected by a filter-binding method.
(§7) The reaction was terminated by adding phosphoric acid (concentration, 0.5%) into a kinase reaction solution, and plate reading was carried out with an Envision instrument.
(§8) Data were converted into phosphorylation rate and inhibition rate, and the parametric curve was fitted by using GraphPad Software to obtain IC50 data of the compounds.

RET kinase = RET kinase (Homo sapiens, UniProt P07949); assay: In-vitro enzyme activity test, RET kinase; type: biochemical; conditions: ATP 20 μM; 10 concentrations 3 μM to 0.152 nM
RET kinase, sequence (P07949 29-1114): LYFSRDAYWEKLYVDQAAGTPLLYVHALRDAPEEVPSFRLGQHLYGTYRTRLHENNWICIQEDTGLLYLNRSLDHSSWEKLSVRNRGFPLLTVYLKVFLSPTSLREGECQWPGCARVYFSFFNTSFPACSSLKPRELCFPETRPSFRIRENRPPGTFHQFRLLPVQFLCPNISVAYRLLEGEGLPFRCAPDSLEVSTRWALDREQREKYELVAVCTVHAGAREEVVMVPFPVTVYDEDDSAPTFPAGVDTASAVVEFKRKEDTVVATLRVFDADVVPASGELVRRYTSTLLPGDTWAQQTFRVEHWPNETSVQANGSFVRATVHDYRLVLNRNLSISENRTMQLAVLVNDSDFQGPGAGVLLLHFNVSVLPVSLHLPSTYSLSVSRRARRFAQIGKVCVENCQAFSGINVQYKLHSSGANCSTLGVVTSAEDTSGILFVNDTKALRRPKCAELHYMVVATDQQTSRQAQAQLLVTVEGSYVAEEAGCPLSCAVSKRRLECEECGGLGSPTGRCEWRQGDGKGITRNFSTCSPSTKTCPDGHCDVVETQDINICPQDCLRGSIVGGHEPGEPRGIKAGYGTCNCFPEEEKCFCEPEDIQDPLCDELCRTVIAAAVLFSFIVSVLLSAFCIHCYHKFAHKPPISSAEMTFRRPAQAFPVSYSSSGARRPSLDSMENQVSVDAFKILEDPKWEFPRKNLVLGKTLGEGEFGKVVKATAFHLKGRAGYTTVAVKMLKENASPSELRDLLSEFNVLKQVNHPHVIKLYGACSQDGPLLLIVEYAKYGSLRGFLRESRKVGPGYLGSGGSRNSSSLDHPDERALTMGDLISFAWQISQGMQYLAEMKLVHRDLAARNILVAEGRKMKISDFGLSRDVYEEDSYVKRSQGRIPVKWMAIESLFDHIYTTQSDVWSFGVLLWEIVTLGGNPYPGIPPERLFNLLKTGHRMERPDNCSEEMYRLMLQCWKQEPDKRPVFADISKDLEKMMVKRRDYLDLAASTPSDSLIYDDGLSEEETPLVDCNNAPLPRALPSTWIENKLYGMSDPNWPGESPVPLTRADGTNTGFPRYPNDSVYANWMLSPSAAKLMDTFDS
Experimental: as §1, §2, §3, §4, §5, §6, §7, §8

[1] = system: Ba/F3-CCDC6-RET cell allograft tumor model; assay: Tumor growth inhibition (TGI) in Ba/F3-CCDC6-RET cell allograft tumor model; type: in vivo, BALB/c nude female mouse
Experimental: Ba/F3-CCDC6-RET cell line was cultured in a 1640 medium (Biological Industries)+10% fetal bovine serum (BI)+1% Penicillin Streptomycin solution (Coring, USA) at 37° C. in a 5% CO2 incubator, with passage treatment twice a week Cells were collected when the cell saturation was 80%-90%, subjected to cell counting, and then inoculated subcutaneously into the right armpit of each BALB/c nude female mouse (6-8 weeks old). After inoculation, tumor growth was observed day by day. When the average tumor volume reached 165.77 mm^3, mice were randomly divided into groups according to the tumor volume, with 6 mice in each group, and then the mice were administrated with drug.
Health status and death situation of the mice were checked every day. In addition, the mice were examined regularly, including tumor growth, activity ability, diet, weight, eyes, hair and other abnormal behaviors, and tumor volume and weight were measured twice a week (on Tuesday and Friday).
Inhibitory effects of the compounds on tumor growth were evaluated according to the relationship between tumor volume and time. The tumor volume was measured by a vernier caliper, with the formula being TV=0.5a×b^2, wherein “a” was the long diameter of the tumor and “b” was the short diameter of the tumor. TGI was calculated by the difference between the median tumor volume of mice in the solvent group and the median tumor volume of mice in the drug group, and expressed as the percentage of median tumor volume in the solvent control group.
TGI was calculated by the following formula: TGI(TGI(%)=[1−(T23−T0)/(V23−V0)]×100)
Data were expressed by Means±Standard Error (Mean±SE), unless otherwise stated. The one way ANOVA test was used to compare whether the difference between the tumor volume in the treatment group and the tumor volume in the control group is statistically significant. P<0.05 was considered as statistically significant. The 5% DMSO+10% polyoxyl 15 hydroxystearate (Solutol)+85% 120 was used as the negative control.

[2] = Pharmacokinetic evaluation in mice (IV and PO); type: in vivo; conditions: mouse, plasma, female Balb/c mice; for bioavailability: peros (PO) 2 mg/kg vs IV 0.2 mg/kg, read-out: F (bioavailability)
Experimental: Experiment process: 0.1 mg/ml of the clear solution of each test compound in the corresponding solvents (as shown in Table 9) was injected into female Balb/c mice (fasting overnight. 7-9 weeks old) via the tail vein at a dose of […]. Blood samples ([…]) were collected from the jugular vein or the tail vein at the following time points: 0.0833 hour, 0.25 hour, 0.5 hour, 1.0 hour, 2.0 hours, 4.0 hours. 8.0 hours and 24 hours after intravenous administration. 0.2 mg/ml of the test compounds suspended in the corresponding solvents (as shown in Table 9) were given to the female Balb/c mice (fasting overnight. 7-9 weeks old) by gavage at a dose of 2 mg/kg. Blood samples (30 μL) were collected from the jugular vein or the tail vein of the female Balb/c mice at the following time points: 0.0833 hour, 0.25 hour, 0.5 hour, 1.0 hour, 2.0 hours, 4.0 hours, 6.0 hours, 8.0 hours and 24 hours after oral administration. The blood samples were placed in anticoagulant tubes containing EDTA-K2, and centrifuged to separate plasma. The plasma concentration was determined by LC-MS/MS, and a WinNonlin™ Version 6.3 pharmacokinetic software (Pharsight, Mountain View, CA) was used to calculate related pharmacokinetic parameters by a linear-log trapezoidal method in a non-compartmental model. [table]

[3] = 10 mg/kg (D0-D13)/5 mg/kg (D14-D17)/2,5 mg/kg (D18-D28) BID

RET (V804M) kinase, sequence (P07949 29-1114 V804M): as the sequence (P07949 29-1114) above, with V776M counted along it

Compound	IC50 (RET (V804M) kinase) [nM]	IC50 (RET kinase) [nM]	also measured
COc1ccc(CN2C3CC2CN(c2ccc(-c4cc(N5CCN(C)CC5)cn5ncc(C#N)c45)cn2)C3)cn1 [Trifluoroacetate of compound 18]		0.46	TGI% (tumor volume at Day 23 after drug administration) ([1]; 10 mg/kg (D0-D17)/5 mg/kg (D18-D28) QD): 91%
N#Cc1cnn2cc(C3=CCOCC3)cc(-c3ccc(N4CCN(Cc5c(F)cccc5F)CC4)nc3)c12 [Trifluoroacetate of compound 22]	2.04	0.47	
CN1CC=C(c2cc(-c3ccc(N4CCN(Cc5c(F)cccc5F)CC4)nc3)c3c(C#N)cnn3c2)CC1 [Trifluoroacetate of compound 26]	22	3.82	
COc1ccc(CN2C3CC2CN(c2cnc(-c4cc(C5=CCOCC5)cn5ncc(C#N)c45)cn2)C3)cn1 [Trifluoroacetate of compound 30]			bioavailability [2]: 96.4%; TGI% (tumor volume at Day 23 after drug administration) [1, 3]: 98%
COc1ccc(CN2C3CC2CN(c2ccc(-c4cc(C5=CCNCC5)cn5ncc(C#N)c45)cn2)C3)cn1 [Trifluoroacetate of compound 32]	3.15	1.1	
COc1ccc(CN2C3CC2CN(c2ccc(-c4cc(C5=CCOCC5)cn5ncc(C#N)c45)cn2)C3)cn1 [Trifluoroacetate of compound 33]	7.43	1.47	
COc1ccc(CN2C3CC2CN(c2ccc(-c4cc(C5=CCC(O)CC5)cn5ncc(C#N)c45)cn2)C3)cn1 (stereo not drawn) [Trifluoroacetate of compound 39]	2.27	0.67	
N#Cc1cnn2cc(N3CCCC3)cc(-c3ccc(N4CCC(C(=O)NC5CC(F)(F)C5)CC4)nc3)c12 [Trifluoroacetate of compound 58]	7.81	1.8	
COc1ccc(CN2CCN(c3ccc(-c4cc(N5CCCC5)cn5ncc(C#N)c45)cn3)CC2)cn1 [Trifluoroacetate of compound 63]	5.68	1.6	
COc1ccc(CN2C3CC2CN(c2ccc(-c4cc(N5CC[C@@H](F)C5)cn5ncc(C#N)c45)cn2)C3)cn1 [Trifluoroacetate of compound 68]	1.47	1.53	
COc1ccc(CN2C3CC2CN(c2ccc(-c4cc(N5CCC(F)(F)C5)cn5ncc(C#N)c45)cn2)C3)cn1 [Trifluoroacetate of compound 69]	1.57	1.44	AUC(0-t) ([2]; intravenous injection (IV) 0.2 mg/kg): 3.87 µM·h; clearance ([2]; intravenous injection (IV) 0.2 mg/kg, read-out: Cl (plasma clearance)): 1.3 mL/min/kg; half-life ([2]; intravenous injection (IV) 0.2 mg/kg, read-out: T1/2 (half-life of elimination) (converted)): 3.6 h; Vd ([2]; intravenous injection (IV) 0.2 mg/kg, read-out: Vdds (volume of distribution at steady state)): 0.42 L/kg; bioavailability [2]: 74.7%; AUC(0-t) ([2]; peros (PO) 2 mg/kg): 29.6 µM·h; Cmax ([2]; peros (PO) 2 mg/kg): 3.63 µM; Tmax ([2]; peros (PO) 2 mg/kg): 4 h; TGI% (tumor volume at Day 23 after drug administration) [1, 3]: 99%
COc1ccc(CN2C3CC2CN(c2ccc(-c4cc(N5CCC(N(C)C)C5)cn5ncc(C#N)c45)cn2)C3)cn1 (stereo not drawn) [Triftuoroacelate of compound 72]	12	6.6	
COc1ccc(CN2C3CC2CN(c2cnc(-c4cc(N5CCCC5)cn5ncc(C#N)c45)cn2)C3)cn1 [Triftuoroacetate of compound 64]	2.67	1.23	

More lines, in order of falling IC50 (RET (V804M) kinase), values ahead:

IC50 (RET (V804M) kinase) [nM]	IC50 (RET kinase) [nM]	Compound	also measured
33.6	4.37	CCN1CC=C(c2cc(-c3ccc(N4CCN(Cc5c(F)cccc5F)CC4)nc3)c3c(C#N)cnn3c2)CC1 [Trifluoroacetate of compound 27]	
19.9	3.87	CC(C)(O)CNC(=O)C1CCN(c2ccc(-c3cc(N4CCCC4)cn4ncc(C#N)c34)cn2)CC1 [Trifluoroacetate of compound 60]	
11.6	1.58	C[C@@H](C(=O)N1CCN(c2ccc(-c3cc(C4=CCOC4)cn4ncc(C#N)c34)cn2)CC1)c1ccccc1 [Trifluoroacetate of compound 28]	
8.85	1.77	CO[C@H]1C[C@@H](NC(=O)C2CCN(c3ccc(-c4cc(N5CCCC5)cn5ncc(C#N)c45)cn3)CC2)C1 [Trifluoroacetate of compound 61]	
8.43	1.1	CN1CC=C(c2cc(-c3ccc(N4CCN(Cc5c(F)cccc5F)CC4)nc3)c3c(C#N)cnn3c2)C1 [Trifluoroacetate of compound 24]	
8.11	1.98	N#Cc1cnn2cc(N3CCCC3)cc(-c3ccc(N4CCN(Cc5c(F)cccc5F)CC4)nc3)c12 [Triftuoroacetate of compound 57]	
7.53	1.62	COc1ccc(CN2C3CC2CN(c2cnc(-c4cc(N5CC[C@H](F)C5)cn5ncc(C#N)c45)cn2)C3)cn1 [Trifluoroacetate of compound 66]	
3.49	1.57	N#Cc1cnn2cc(N3CCOCC3)cc(-c3ccc(N4CC5CC(C4)N5Cc4cnc5c(c4)OCO5)nc3)c12 [Trifluoroacetate of compound 13]	
2.6	0.66	COc1ccc(CN2C3CC2CN(c2cnc(-c4cc(N5CCC(F)(F)C5)cn5ncc(C#N)c45)cn2)C3)cn1 [Trill uoroacetale of compound 65]	
1.6	1.09	COc1ccc(CN2C3CC2CN(c2cnc(-c4cc(N5CC[C@@H](F)C5)cn5ncc(C#N)c45)cn2)C3)cn1 [Trifluoroacetate of compound 67]	
0.48	0.72	N#Cc1cnn2cc(N3CCOCC3)cc(-c3ccc(N4CC5CC(C4)N5Cc4cnc5[nH]ccc5c4)nc3)c12 [Trifluoroacetate of compound 14]	
